Results reported in patent publication US10315992B2, “Tetracyline compounds” (Tetraphase Pharmaceuticals, Inc., priority 2012, dated 2019).
In brackets after ≈: the same amount, converted by molar mass. Like-named read-outs stand apart in the source and are kept apart here.

Key:
PA 884 35151 = experiment: MIC assay, PA884; conditions: Pseudomonas aeruginosa, read-out: MIC PA 884 351 51
Procedure: (§1) MICs were determined according to the Clinical and Laboratory Standards Institute (CLSI) guidances (e.g., CLSI. Performance standards for antimicrobial susceptibility testing; nineteenth information supplement. CLSI document M100-S19, CLSI, 940 West Valley Road, Suite 1400, Wayne, Pa. 19087-1898, USA, 2009). Briefly, frozen bacterial strains were thawed and subcultured onto Mueller Hinton Broth (MHB) or other appropriate media (Streptococcus requires blood and Haemophilus requires hemin and NAD). Following incubation overnight, the strains were subcultured onto Mueller Hinton Agar and again incubated overnight. […] Isolated colonies were selected to prepare a starting inoculum equivalent to a 0.5 McFarland standard. […] Test compounds were prepared by dilution in sterile water to a final concentration of 5.128 mg/mL. Antibiotics (stored frozen, thawed and used within 3 hours of thawing) and compounds were further diluted to the desired working concentrations.
(§2) The assays were run as follows. Fifty μL of MHB was added to wells 2-12 of a 96-well plate. One hundred μL of appropriately diluted antibiotics was added to well 1. Fifty μL of antibiotics was removed from well 1 and added to well 2 and the contents of well 2 mixed by pipetting up and down five times. Fifty μL of the mixture in well 2 was removed and added to well 3 and mixed as above. Serial dilutions were continued in the same manner through well 12. Fifty μL was removed from well 12 so that all contained 50 μL. Fifty μL of the working inoculum was then added to all test wells. A growth control well was prepared by adding 50 μL of working inoculum and 50 μL of MHB to an empty well. The plates were then incubated at 37° C. overnight, removed from the incubator and each well was read on a plate reading mirror. The lowest concentration (MIC) of test compound that inhibited the growth of the bacteria was recorded.

EC 882 imp = experiment: MIC assay, EC882; assay type: cell-based; conditions: read-out: MIC EC 882 imp
Source text: Minimum Inhibitory Concentration (MIC) Assay
The assays were run as follows.

[1] = test system: Pseudomonas aeruginosa PA555 (ATCC BAA-47, PAO1); experiment: MIC assay, PA555; assay type: cell-based
[2] = test system: Escherichia coli EC878 (MG1655 tolC::kan); experiment: microbe, parasite or virus in culture; assay type: cell-based
[3] = test system: Enterococcus faecalis EF103 (ATCC 29212); experiment: MIC assay, EF103; assay type: cell-based; conditions: ATCC29212, read-out: MIC EF 103 29212
[4] = test system: Escherichia coli EC155 (tet(A)); experiment: MIC assay, EC155; assay type: cell-based; conditions: Escherichia coli, read-out: MIC EC 155 tetA
[5] = test system: Staphylococcus aureus SA101 (ATCC 29213, MSSA); experiment: MIC assay, SA101; assay type: cell-based
[6] = test system: Streptococcus pyogenes SP312 (2009 clinical isolate, tet(M)); experiment: MIC assay, SP312; assay type: cell-based
KP 194 7E+05 = experiment: MIC assay, KP194; conditions: Table 5
Procedure: as §1, §2

[7] = test system: Pseudomonas aeruginosa PA111 (ATCC 27853); experiment: MIC assay, PA111; assay type: cell-based; conditions: ATCC27853, read-out: MIC PA 111 27853
[8] = test system: Stenotrophomonas maltophilia SM256 (cystic fibrosis isolate, MDR); experiment: MIC assay, SM256; assay type: cell-based
[9] = test system: Haemophilus influenzae HI262 (tetracycline-resistant, ampicillin-resistant); experiment: MIC assay, HI262; assay type: cell-based; conditions: read-out: MIC HI 262 33929
[10] = test system: Acinetobacter baumannii AB250 (cystic fibrosis isolate, MDR); experiment: MIC assay, AB250; assay type: cell-based
[11] = test system: Enterobacter cloacae EC603 (urine isolate); experiment: MIC assay, EC603; assay type: cell-based
[12] = test system: Enterococcus faecalis EF159 (tet(M)); experiment: MIC assay, EF159; assay type: cell-based
[13] = test system: Moraxella catarrhalis MC205 (ATCC 8176); experiment: MIC assay, MC205; assay type: cell-based; conditions: ATCC8176, read-out: MIC MC 205 8176
[14] = test system: Staphylococcus aureus SA191 (HA-MRSA, tetracycline-resistant); experiment: MIC assay, SA191; assay type: cell-based; conditions: MRSA, read-out: MIC SA 191
[15] = test system: Proteus mirabilis PM385 (urine ESBL+ isolate); experiment: MIC assay, PM385; assay type: cell-based
[16] = test system: Staphylococcus aureus SA158 (tetracycline-resistant tet(K)); experiment: MIC assay, SA158; assay type: cell-based
[17] = test system: Enterococcus faecalis EF327 (wound isolate, tet(M)); experiment: MIC assay, EF327; assay type: cell-based
[18] = test system: Streptococcus pneumoniae SP106 (ATCC 49619); experiment: MIC assay, SP106; assay type: cell-based; conditions: ATCC49619, read-out: MIC SP 106 49619
[19] = test system: Pseudomonas aeruginosa PA669 (2009 tracheal aspirate isolate); experiment: MIC assay, PA669; assay type: cell-based
[20] = test system: Proteus mirabilis PM112 (ATCC 35659); experiment: MIC assay, PM112; assay type: cell-based; conditions: ATCC35659, read-out: MIC PM 112 35659
[21] = test system: Enterococcus faecium EF404 (blood isolate, tet(M)); experiment: MIC assay, EF404; assay type: cell-based
[22] = test system: Acinetobacter baumannii AB110 (ATCC 19606); experiment: MIC assay, AB110; assay type: cell-based; conditions: ATCC19606, read-out: MIC AB 110 19606

## CN(C)c1cc(NC(=O)CNC(C)(C)C)c(O)c2c1C[C@H]1C[C@H]3[C@H](N(C)C)C(O)=C(C(N)=O)C(=O)[C@@]3(O)C(O)=C1C2=O [Tigecycline, tigecycline]
PA 884 35151
  MIC: 0.063 µg/mL (≈ 0.108 µM)
EC 882 imp; Table 6
  MIC: 0.015 µg/mL (≈ 0.0256 µM)
EC 882 imp; Table 7
  MIC: 0.02 µg/mL (≈ 0.0341 µM)
[1]
  MIC: 16 µg/mL (≈ 27.3 µM)
[1]; read-out: MIC PA5 55 BAA- 47
  MIC: 16 µg/mL (≈ 27.3 µM)
[1]; read-out: MIC PA 555
  MIC: 16 µg/mL (≈ 27.3 µM)
[1]; read-out: MIC PA 555 BAA- 47
  MIC: 16 µg/mL (≈ 27.3 µM)
[1]; read-out: MIC PA 555 BAA-47
  MIC: 16 µg/mL (≈ 27.3 µM)
[2]; MG1655, read-out: MIC EC 878 toIC, E. coli MG1655 tolC::kan, Table 6
  MIC: 0.031 µg/mL (≈ 0.0529 µM)
[2]; MG1655, read-out: MIC EC 878 toIC, E. coli MG1655 tolC::kan, Table 7
  MIC: 0.03 µg/mL (≈ 0.0512 µM)
[2]; MG1655, read-out: MIC EC 878 toIC, control compounds
  MIC: 0.03 µg/mL (≈ 0.0512 µM)
[2]; MG1655, read-out: MIC EC 878 tolC, control compounds, numeric
  MIC: 0.03 µg/mL (≈ 0.0512 µM)
[3]
  MIC: 0.031 µg/mL (≈ 0.0529 µM)
[4]
  MIC: 0.5 µg/mL (≈ 0.854 µM)
[5]; read-out: MIC SA 101 292 13, S. aureus ATCC 29213, MSSA, Table 6
  MIC: 0.063 µg/mL (≈ 0.108 µM)
[5]; read-out: MIC SA 101 29213, S. aureus ATCC 29213, MSSA, Table 4
  MIC: 0.063 µg/mL (≈ 0.108 µM)
[5]; read-out: MIC SA 101 29213, S. aureus ATCC 29213, MSSA, Table 5
  MIC: 0.0625 µg/mL (≈ 0.107 µM)
[5]; read-out: MIC SA 101 29213, S. aureus ATCC 29213, MSSA, Table 7
  MIC: 0.06 µg/mL (≈ 0.102 µM)
[5]; read-out: MIC SA 101 29213, control compounds
  MIC: 0.06 µg/mL (≈ 0.102 µM)
[5]; read-out: MIC SA 101 29213, control compounds, numeric
  MIC: 0.06 µg/mL (≈ 0.102 µM)
[6]; read-out: MIC SP 312
  MIC: 0.02 µg/mL (≈ 0.0341 µM)
[6]; read-out: MIC SP 312 tet M
  MIC: 0.015 µg/mL (≈ 0.0256 µM)
KP 194 7E+05
  MIC KP 194 7E+05: 8 μg/mL
[7]
  MIC: 8 µg/mL (≈ 13.7 µM)
[8]
  MIC: 1 µg/mL (≈ 1.71 µM)
[8]; read-out: MIC SM 256
  MIC: 1 µg/mL (≈ 1.71 µM)
[9]
  MIC: 1 µg/mL (≈ 1.71 µM)
[10]
  MIC: 8 µg/mL (≈ 13.7 µM)
[10]; read-out: MIC AB 250
  MIC: 8 µg/mL (≈ 13.7 µM)
[11]
  MIC: 2 µg/mL (≈ 3.41 µM)
[11]; read-out: MIC EC 603 tetA
  MIC: 2 µg/mL (≈ 3.41 µM)
[12]; read-out: MIC EF 159 tetM, E. faecalis tet(M), Table 4
  MIC: 0.063 µg/mL (≈ 0.108 µM)
[12]; read-out: MIC EF 159 tetM, E. faecalis tet(M), Table 5
  MIC: 0.06 µg/mL (≈ 0.102 µM)
[13]
  MIC: 0.02 µg/mL (≈ 0.0341 µM)
[14]
  MIC: 0.5 µg/mL (≈ 0.854 µM)
[15]; read-out: MIC PM 385
  MIC: 4 µg/mL (≈ 6.83 µM)
[15]; read-out: MIC PM 385 CTX-M15
  MIC: 4 µg/mL (≈ 6.83 µM)
[16]; read-out: MIC SA 158 tetK, S. aureus tet(K), Table 4
  MIC: 0.063 µg/mL (≈ 0.108 µM)
[16]; read-out: MIC SA 158 tetK, S. aureus tet(K), Table 5
  MIC: 0.06 µg/mL (≈ 0.102 µM)
[16]; read-out: MIC SA 158 tetK, S. aureus tet(K), Table 6
  MIC: 0.063 µg/mL (≈ 0.108 µM)
[16]; read-out: MIC SA 158 tetK, S. aureus tet(K), Table 7
  MIC: 0.06 µg/mL (≈ 0.102 µM)
[16]; read-out: MIC SA 158 tetK, control compounds
  MIC: 0.06 µg/mL (≈ 0.102 µM)
[16]; read-out: MIC SA 158 tetK, control compounds, numeric
  MIC: 0.06 µg/mL (≈ 0.102 µM)
[17]; read-out: MIC EF 327 tet M
  MIC: 0.063 µg/mL (≈ 0.108 µM)
[17]; read-out: MIC EF 327 tetM
  MIC: 0.06 µg/mL (≈ 0.102 µM)
[18]
  MIC: 0.016 µg/mL (≈ 0.0273 µM)
[19]
  MIC: 32 µg/mL (≈ 54.6 µM)
[19]; read-out: MIC PA 669
  MIC: 32 µg/mL (≈ 54.6 µM)
[20]
  MIC: 1 µg/mL (≈ 1.71 µM)
[21]; read-out: MIC EF 404 tet M
  MIC: 0.031 µg/mL (≈ 0.0529 µM)
[21]; read-out: MIC EF 404 tetM
  MIC: 0.03 µg/mL (≈ 0.0512 µM)
[22]
  MIC: 0.25 µg/mL (≈ 0.427 µM)
